Data published in US20250090562A1, “METHODS, COMPOSITIONS AND USES RELATED TO THE TREATMENT AND PREVENTION OF LEIGH’S SYNDROME” (Stealth BioTherapeutics Inc., priority 2023, published 2025).

Assays:
Format in all cases: cell-based, human
[1] = system: Healthy (GM08402) fibroblasts; assay: Erastin cytoprotection assay, healthy fibroblasts; settings: 2 μM erastin, 250 μM FAC, 50 μM AA, 10-1000 nM compound, 24 h
Experimental: (§1) Briefly, Healthy (GM08402) or Leigh (GM03672) fibroblasts were resuspended in assay medium, seeded at 10,000 cells per well in a clear, tissue cultured-treated, 96-well plate, and incubated at 37° C. overnight. Following the incubation, supernatant was manually aspirated from wells, taking care not to disrupt cells. Fibroblasts were co-treated in a final volume of 100 μL with 2 μM erastin (Millipore Corp., Cat #), 250 μM ferric ammonium citrate (FAC), 50 μM ascorbic acid (AA), and a titration of one of each of Compounds 1 to 4 or Vatiquinone ranging from 10 to 1000 nM. Following another 24-hour incubation at 37° C., cell viability was measured using the CellTiter-Glo Luminescent Cell Viability Kit (ProMega) per Manufacturer's instructions. Luminescence units were quantified by GEN5 software on a BioTek SYNERGY neo2 plate reader (LUM filter).
(§2) Briefly, erastin, like RSL3, is known to induce ferroptosis. […] Erastin was incubated with cell fibroblasts for 24 hours to induce ferroptosis. Cells were co-treated with each of Compounds 1 to 4, or Vatiquinone as the test articles. Test articles were administered at a range of concentrations to derive a curve. Cell viability was determined using a commercially available kit that measures ATP production. […] An increase in cell viability as determined by the assay is considered to be protective against ferroptosis.

[2] = system: Healthy (GM08402) fibroblasts; assay: RSL3 cytoprotection assay, healthy fibroblasts; settings: 1 μM RSL3, 10-1000 nM compound, 4 h
Experimental: Patient fibroblasts were acquired from Coriell Institute for Medical Research (Camden, NJ, USA). GM03672 is an untransformed fibroblast cell line from a Leigh syndrome patient carrying an unknown mutation. GM08402 is an untransformed fibroblast from an apparently healthy individual. Cells were cultured at 37° C. at 5% CO2 in Eagle's Minimum Essential Medium (MEM, Corning), which was supplemented with Earle's salts and non-essential amino acids, 15% qualified fetal bovine serum, and 1% penicillin/streptomycin ([…]) to yield “Complete MEM.”
To initiate the RSL3 cytoprotection experiment, Healthy (GM08402) and Leigh syndrome (GM03672) fibroblasts were resuspended in Complete MEM. Cells were seeded at 10,000 cells per well in a clear, tissue cultured-treated, 96-well plate and incubated at 37° C. overnight. Following the incubation, supernatant was manually aspirated, taking care not to disrupt cells. […]. Luminescence units were quantified by GEN5 software on a BioTek SYNERGY neo2 plate reader (LUM filter).
RSL3 is an inhibitor of the enzyme glutathione peroxidase 4 (GPX4), which decreases lipid peroxides. RSL3 inhibition of GPX4 induces ferroptosis through iron-dependent accumulation of lipid ROS. In this assay, Healthy or Leigh fibroblasts were treated for 4 hours with RSL3 to induce ferroptosis or left untreated. Endogenous ATP levels were measured as an indicator of cellular viability using a commercially available kit (CellTiter-Glo® 2.0 Cell Viability Assay (Promega)).
[…]. […] Briefly, ferroptosis was induced with 1 μM RSL3 in healthy fibroblast cells and 375 nM RSL3 in fibroblasts from a patient with Leigh syndrome.
A preliminary experiment was performed to determine the effect of RSL3 injury on the fibroblasts of a healthy individual (cell line: GM08402) and the fibroblasts of a patient diagnosed with Leigh syndrome (cell line: GM03672).

15-lipoxygenase (15-LO) [3] = assay: 15(S)-HETE ELISA following RSL3 treatment, healthy fibroblasts; settings: 700 nM RSL3, 1 μM compound, 24 h
Experimental: (§3) Samples for the 15(S)-HETE ELISA were generated by the RSL3 cytoprotection assay described above. Healthy or Leigh fibroblasts were resuspended in assay medium, seeded at 200,000 cells per well in a clear, tissue culture-treated, 24-well plate. Cells were incubated at 37° C. for 24 hours. Supernatant was aspirated from each well following the incubation.
(§4) Fibroblasts from both a healthy individual and a patient diagnosed with Leigh syndrome were examined (but not all compounds were examined in each cell type). Activation of ferroptosis has been implicated as a driver of epilepsy, which is commonly associated with Leigh syndrome. […] Kahn-Kirby et al. PLOS One. […] As a key regulator of ferroptosis, 15-LO serves as a rational therapeutic target in Leigh syndrome.

15-lipoxygenase (15-LO) [4] = assay: 15(S)-HETE ELISA following RSL3 treatment, Leigh fibroblasts; settings: 700 nM RSL3, 1 μM compound, 24 h
Experimental: as §3, §4

[5] = system: Leigh (GM03672) fibroblasts; assay: Erastin cytoprotection assay, Leigh fibroblasts; settings: 2 μM erastin, 250 μM FAC, 50 μM AA, 10-1000 nM compound, 24 h
Experimental: as §1, §2

Compound	relative protective effect against erastin induced ferroptosis (cell viability, ATP) [1]	relative anti-ferroptosis properties (comparison between test articles) [2]	inhibition of 15-lipoxygenase (15(S)-HETE in supernatant) (15-lipoxygenase (15-LO) [3])	relative 15-LO inhibition (comparison between test articles) (15-lipoxygenase (15-LO) [3])	relative 15-LO inhibition (comparison between test articles) (15-lipoxygenase (15-LO) [4])	relative protective effect against erastin induced ferroptosis (cell viability, ATP) [5]
CC1=C(C)C(=O)C(CC[C@@](C)(O)COCCC[Si](C)(C)C)=C(C)C1=O [Compound 3]	superior in their protective effect as compared with Vatiquinone or Compounds 1 or 4	superior to Compounds 1, 4 and Vatiquinone	inhibited 15-lipoxygenase	superior to Compounds 2, 4 and Vatiquinone	roughly equivalent protective effect	superior in their protective effect as compared with Vatiquinone or Compounds 1 or 4
CC1=C(C)C(=O)C(CC[C@](C)(O)CCCCCCCCC(F)(F)F)=C(C)C1=O [Compound 4]	about equally protective	roughly equivalent in their anti-ferroptosis properties	inhibited 15-lipoxygenase	roughly equivalent protective effect	roughly equivalent protective effect	about equally protective
CC1=C(C)C(=O)C(CC[C@@](C)(O)CC/C=C(\C)CCC=C(F)F)=C(C)C1=O [Compound 2]	superior in their protective effect as compared with Vatiquinone or Compounds 1 or 4	superior to Compounds 1, 4 and Vatiquinone	inhibited 15-lipoxygenase	roughly equivalent protective effect	roughly equivalent protective effect	superior in their protective effect as compared with Vatiquinone or Compounds 1 or 4
